Experimental data: ChEMBL document CHEMBL1201862, “PubChem BioAssay data set” (2004)
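Cells were grown in 96-well plates and exposed to each compound for 48 hours at five concentrations; endpoints were interpolated linearly between bracketing concentrations, or set to the highest concentration if not reached. The concentration for 50% growth inhibition is given as GI50.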 Activity calls are given as the source filed them. No stated cut-off is given here; in the data, active = GI50 up to about 1.1 µM and inactive = higher. Non-standard residues stand in square brackets, D forms with d. Residues, ends and D or L forms follow the SMILES beside them. *: point of attachment. Cbz = O=C(OCc1ccccc1)*; Boc = CC(C)(C)OC(=O)*; Aib = CC(C)(N)C(=O)O; OBn = c1ccc(CO*)cc1; OtBu = CC(C)(C)O*; βAla = NCCC(=O)O

Assays:
Assay in all cases: inhibition of tumour cell growth, NCI panel, 48 h
HCT-116 = test system: HCT-116
SK-MEL-5 = test system: SK-MEL-5
NCI-H23 = test system: NCI-H23
SF-295 = test system: SF-295
A549 = test system: A549
HOP-62 = test system: HOP-62
K562 = test system: K562
Malme-3M = test system: Malme-3M
MDA-MB-435 = test system: MDA-MB-435
SW-620 = test system: SW-620
EKVX = test system: EKVX
MDA-MB-231 = test system: MDA-MB-231
A498 = test system: A498
SK-MEL-28 = test system: SK-MEL-28
CCRF-CEM = test system: CCRF-CEM
HL-60 = test system: HL-60
ACHN = test system: ACHN
UACC-62 = test system: UACC-62
HCC 2998 = test system: HCC 2998
CAKI-1 = test system: CAKI-1

Compound	GI50 (HCT-116)	GI50 (SK-MEL-5)	GI50 (NCI-H23)	GI50 (SF-295)	GI50 (A549)	GI50 (HOP-62)	GI50 (K562)	GI50 (Malme-3M)	GI50 (MDA-MB-435)	GI50 (SW-620)	GI50 (EKVX)	GI50 (MDA-MB-231)	GI50 (A498)	GI50 (SK-MEL-28)	GI50 (CCRF-CEM)	GI50 (HL-60)	GI50 (ACHN)	GI50 (UACC-62)	GI50 (HCC 2998)	GI50 (CAKI-1)
COc1cc(NCCC(=O)O)c2ncccc2c1	> 100 µM (inactive)	> 100 µM (inactive)	> 100 µM (inactive)	> 100 µM (inactive)	> 100 µM (inactive)	> 100 µM (inactive)	> 100 µM (inactive)	> 100 µM (inactive)	> 100 µM (inactive)	> 100 µM (inactive)	> 100 µM (inactive)	> 100 µM (inactive)	> 100 µM (inactive)	> 100 µM (inactive)	> 100 µM (inactive)	> 100 µM (inactive)	> 100 µM (inactive)	> 100 µM (inactive)		
COc1cc(C2c3cc4c(cc3OC(NNC(N)=O)C2C)OCO4)cc(OC)c1OC (configuration not stated)	0.13 µM (active)	0.123 µM (active)	0.394 µM (active)	0.114 µM (active)	0.276 µM (active)	0.118 µM (active)	0.0817 µM (active)	0.828 µM (active)	0.0586 µM (active)	0.142 µM (active)	2.35 µM (inactive)		0.0233 µM (active)	1.12 µM (inactive)	0.109 µM (active)	0.11 µM (active)	0.557 µM (active)	0.179 µM (active)	0.373 µM (active)	0.634 µM (active)
[N-]=[N+]=Nc1cc(=O)n(-c2ccccc2)c(=O)n1-c1ccccc1	> 100 µM (inactive)	> 100 µM (inactive)	> 100 µM (inactive)	> 100 µM (inactive)	> 100 µM (inactive)	> 100 µM (inactive)	> 100 µM (inactive)	> 100 µM (inactive)	> 100 µM (inactive)	> 100 µM (inactive)	> 100 µM (inactive)	> 100 µM (inactive)		> 100 µM (inactive)	> 100 µM (inactive)		> 100 µM (inactive)	67 µM (inactive)		> 100 µM (inactive)
Cc1cc(-c2nc3ccccc3s2)ccc1NC(=O)[C@@H](N)CCCCN	6.22 µM (inactive)	13.9 µM (inactive)	6.7 µM (inactive)	5.07 µM (inactive)	6.14 µM (inactive)	11.8 µM (inactive)	7.01 µM (inactive)	18.2 µM (inactive)	5.24 µM (inactive)	12.7 µM (inactive)	12.2 µM (inactive)	9.04 µM (inactive)	3.83 µM (inactive)	15.3 µM (inactive)	6.92 µM (inactive)		14.7 µM (inactive)	13.8 µM (inactive)	6.31 µM (inactive)	7.5 µM (inactive)
COC(=O)C1(C(=O)OC)N=C(C)OC1c1ccccc1O (configuration not stated)	> 100 µM (inactive)	> 100 µM (inactive)	> 100 µM (inactive)	> 100 µM (inactive)	> 100 µM (inactive)	> 100 µM (inactive)	> 100 µM (inactive)		> 100 µM (inactive)	> 100 µM (inactive)	> 100 µM (inactive)		> 100 µM (inactive)	> 100 µM (inactive)	> 100 µM (inactive)	> 100 µM (inactive)	> 100 µM (inactive)	> 100 µM (inactive)	> 100 µM (inactive)	> 100 µM (inactive)
Cc1ccc(/C=C2\NC(=S)N(CN3CCOCC3)C2=O)cc1	> 100 µM (inactive)	> 100 µM (inactive)	> 100 µM (inactive)	> 100 µM (inactive)	> 100 µM (inactive)	> 100 µM (inactive)	> 100 µM (inactive)	> 100 µM (inactive)	> 100 µM (inactive)	> 100 µM (inactive)	> 100 µM (inactive)	> 100 µM (inactive)	> 100 µM (inactive)	> 100 µM (inactive)	> 100 µM (inactive)		> 100 µM (inactive)	> 100 µM (inactive)		
COC1C(OC(=O)/C=C/C=C/C=C/C=C\C(=O)O)CCC2(CO2)C1C1(C)OC1CC=C(C)C (configuration not stated)	> 100 µM (inactive)	> 100 µM (inactive)	> 100 µM (inactive)	> 100 µM (inactive)	> 100 µM (inactive)	> 100 µM (inactive)	> 56.5 µM (inactive)	131 µM (inactive)	> 100 µM (inactive)	> 100 µM (inactive)	> 100 µM (inactive)	> 100 µM (inactive)	> 100 µM (inactive)	> 100 µM (inactive)	> 100 µM (inactive)		> 100 µM (inactive)	> 100 µM (inactive)	> 100 µM (inactive)	> 100 µM (inactive)
C=C1[C@@H](OC(C)=O)[C@H]2[C@@H](OC(C)=O)[C@@](C)(OC(C)=O)C[C@]2(OC(C)=O)C(=O)[C@@H](C)/C=C/C(C)(C)C(=O)C[C@H]1OC(C)=O	> 100 µM (inactive)	> 100 µM (inactive)	> 100 µM (inactive)	> 100 µM (inactive)	> 100 µM (inactive)	> 100 µM (inactive)	> 100 µM (inactive)	> 100 µM (inactive)	> 100 µM (inactive)		83.9 µM (inactive)	> 100 µM (inactive)		> 100 µM (inactive)	60.3 µM (inactive)		> 100 µM (inactive)	83.8 µM (inactive)	> 100 µM (inactive)	> 100 µM (inactive)
COc1ccc(C(=O)N2CCN(c3ccc4c(c3)OCC(=O)N4)CC2)cc1OC	> 100 µM (inactive)	> 100 µM (inactive)	> 100 µM (inactive)	> 100 µM (inactive)	> 100 µM (inactive)	> 100 µM (inactive)		> 100 µM (inactive)	> 100 µM (inactive)	> 100 µM (inactive)	> 100 µM (inactive)	> 100 µM (inactive)		> 100 µM (inactive)	> 100 µM (inactive)	> 100 µM (inactive)	> 100 µM (inactive)	> 100 µM (inactive)	> 100 µM (inactive)	
O=C1[C@@H]2C[C@@H](O)CN2C(=O)c2ccccc2N1CCCO	> 100 µM (inactive)			> 100 µM (inactive)	> 100 µM (inactive)	> 100 µM (inactive)	> 100 µM (inactive)		> 100 µM (inactive)	> 100 µM (inactive)	> 100 µM (inactive)	> 100 µM (inactive)	> 100 µM (inactive)	> 100 µM (inactive)			> 100 µM (inactive)	> 100 µM (inactive)		
O=[N+]([O-])c1cccc2c(/N=N/c3ccc4ccccc4c3O)c(O)cc(S(=O)(=O)O)c12	31 µM (inactive)	31 µM (inactive)	33.3 µM (inactive)	20.9 µM (inactive)	32.7 µM (inactive)	18.2 µM (inactive)	> 100 µM (inactive)	14.6 µM (inactive)	23.8 µM (inactive)	31.6 µM (inactive)	79.3 µM (inactive)			44.3 µM (inactive)	3.05 µM (inactive)	4.21 µM (inactive)	22.5 µM (inactive)	7.78 µM (inactive)		2 µM (inactive)
O=S(=O)(O)c1ccc(O)c(/N=N/c2c(O)ccc3ccccc23)c1	> 100 µM (inactive)	> 100 µM (inactive)	> 100 µM (inactive)	> 100 µM (inactive)	> 100 µM (inactive)	> 100 µM (inactive)	> 100 µM (inactive)		> 100 µM (inactive)	> 100 µM (inactive)	> 100 µM (inactive)	> 100 µM (inactive)	> 100 µM (inactive)	> 100 µM (inactive)	36.6 µM (inactive)			> 100 µM (inactive)		> 100 µM (inactive)
O=C(O)CC(Cc1ccccc1Cl)C(=O)O (configuration not stated)	> 100 µM (inactive)	> 100 µM (inactive)	> 100 µM (inactive)	> 100 µM (inactive)	> 100 µM (inactive)	> 100 µM (inactive)	> 100 µM (inactive)	> 100 µM (inactive)	> 100 µM (inactive)	> 100 µM (inactive)	> 100 µM (inactive)	> 100 µM (inactive)	> 100 µM (inactive)	> 100 µM (inactive)	> 100 µM (inactive)		> 100 µM (inactive)	> 100 µM (inactive)	> 100 µM (inactive)	> 100 µM (inactive)
COc1cc(-c2oc3c(OC)cc(OC)c(O)c3c(=O)c2OC)cc(OC)c1OC	4.32 µM (inactive)	20.7 µM (inactive)	36.3 µM (inactive)	2.59 µM (inactive)	> 100 µM (inactive)	2.06 µM (inactive)	> 100 µM (inactive)	5.97 µM (inactive)	> 100 µM (inactive)	6.28 µM (inactive)	> 100 µM (inactive)	2.84 µM (inactive)		> 100 µM (inactive)		> 100 µM (inactive)	8.49 µM (inactive)	23.6 µM (inactive)	> 100 µM (inactive)	14.4 µM (inactive)
CC(C)(C)OC(=O)CC(NC(=O)OC(C)(C)C)C(=O)NC(CCCCNC(=O)OCc1ccccc1)C(=O)NC(C)(C)C(=O)NCCC(=O)OCc1ccccc1 (configuration not stated) (Boc-D(OtBu)K(Cbz)[Aib][βAla]-OBn; configuration not given here)	> 100 µM (inactive)	> 100 µM (inactive)	> 100 µM (inactive)	> 100 µM (inactive)	> 100 µM (inactive)	> 100 µM (inactive)	> 100 µM (inactive)	> 100 µM (inactive)	> 100 µM (inactive)	> 100 µM (inactive)	> 100 µM (inactive)	> 100 µM (inactive)	86.3 µM (inactive)	> 100 µM (inactive)		> 100 µM (inactive)	> 100 µM (inactive)	> 100 µM (inactive)		> 100 µM (inactive)
